Here are results for two compounds from patent US10463669B2, “Composition for treating or preventing liver cancer” (Seoul National University R&DB Foundation, priority 2016, dated 2019).

The structures appear in SMILES notation.

Format in all cases: cell-based, human
For test [1], the system named is telomere length in HCC cell lines (Huh7 and Hep3B). Briefly: Telomere length (Southern blot, immunoFISH, Flow FISH, quantitative PCR). The method, then:
Volume of the hybridization buffer was adjusted to 100 μl per 10^5 cells. Next, each sample was cultured for 10 minutes in a water bath at 85° C. […] Total 15,000 to 20,000 nuclei were analyzed for the each separate culture. Telomere fluorescence intensity of the all nuclei at […] phase of the cell cycle was measured by using BD FACS Calibur flow cytometer (Becton Dickinson, Franklin Lakes, N.J., USA) in which CELLQUEST software is used. The established ImmunoFISH protocol (Plentz R R, et al., Hepatology. 2007; 45: 968-76) was used with slight modifications. The paraffin-embedded section was subjected to de-paraffinization using xylene, and then rehydrated using ethanol gradient. Antigen retrieval was carried out by boiling in 100 mmol/L sodium citrate (pH 6.0) for 10 minutes in a microwave. After permeation of proteinase K (15 μg/mL in PBS [pH 7.4]) for 20 minutes at 37° C., 8-oxo-dG-specific antibody (1:100, Abcam, Cambridge, Mass., USA; ab62623) was subjected to 1% BSA dilution in PBS 0.1% Triton X-100 and cultured overnight at room temperature. After washing, the slide was treated with Alexa 647 secondary antibody for 1 hour. […] After denaturation for 6 minutes at 90° C., the sample was hybridized for 2 hours at dark place. […] After washing, the slide was rinsed with PBS containing DAPI, and then sealed with a DAPI sealing agent (mounting medium) (Vector Laboratories, Burlingame, Calif., USA). Simultaneously, the inventors of the present invention carried out centromere staining as an internal control for telomere staining and 8-oxo-dG staining. […] For quantification of the telomere fluorescence intensity, centromere fluorescence intensity, and 8-oxo-dG fluorescence intensity, the same exposure time was employed. The telomere fluorescence level and 8-oxo-dG fluorescence level of tumor tissues were calculated by division of the fluorescence level in non-tumor tissues corresponding to 5 random fields. The image analysis was carried out by using Image-Pro plus 6.0 software (Media Cybernetics, Inc., Rockville, Md., USA). Telomere length was determined by using the non-radioactive chemical fluorescence TeloTAGGG telomere length assay (Roche; Cat. No. 12 209 136 001) according to the manual. Genomic DNA was separated from HCC cells using GeneJET Genomic DNA Purification Kit (Thermo Scientific; #K0721), and then 4 μg of the genomic DNA was digested for 16 hours at 37° C. with 20 units of […] digested DNA was subjected to 0.8% agarose gel electrophoresis, and then transferred to a positively charged nylon membrane using capillary transfer. The blotted DNA was hybridized for 16 hours at 42° C. with a digoxigenin (DIG)-labeled probe that is specific to the telomere repeat. After that, it was cultured for 30 minutes at room temperature with DIG-specific antibody conjugated to an alkaline phosphatase Based on quantitative PCR analysis using the genomic DNA extracted from cells, relative telomere repeat copy number (T) and single copy number (S) were determined, and the calculation was made like previous method in which T/S ratio is continuously modified (Cawthon R M. Telomere length measurement by a novel monochrome multiplex quantitative PCR method. Nucleic Acids Res. 2009; 37: e21).

In test [2] the test system is AKT phosphorylation in THLE-3 cells. The experiment in a line: AKT phosphorylation, immunoblot assay. On the procedure: Medium was exchanged every day, and the aforementioned cells were cultured for 4 days in 300 μmol/L hydrogen peroxide (H2O2) (Sigma Aldrich; H1009). In several experiments, the cells were treated for 1 hour with 5 mmol/L N-acetylcysteine (NAC) (Sigma Aldrich; A7250), 25 μmol/L idelalisib (LC Laboratoties, Woburn, Mass., USA; I-7447), 25 μmol/L perifosine (LC Laboratoties, Woburn, Mass., USA; P-6522), or 30 μmol/L GSK3β inhibitor (GSK3β inhibitor XI) (Santa Cruz; sc-204770) (31) before adding H2O2. Furthermore, sterilized distilled water (pH 7.0) was used as a negative control (i.e., mock treatment).
Total 2×10^5 cells were boiled for 5 minutes in 2×SDS sample buffer (100 mmol/L TrisHCl [pH 6.8], 4% SDS, 0.2% bromophenol blue, 20% glycerol, and 200 mmol/L β-mercaptoethanol), and then subjected to SDS-PAGE and Western blotting. To detect the TERT, the cells were cultured in 2×SDS sample buffer for 15 minutes at 55° C. TERT-specific (1:300, Rockland Immunochemicals, Gilbertsville, Pa., USA; 600-401-252), AKT-specific (1:1000, Cell Signaling Technology; #9272), phospho-AKT-specific (1:2000, Cell Signaling Technology; #4060), GAPDH-specific (1:2000, Santa Cruz Biotechnology; sc-47724), or β-actin-specific (1:2000, Sigma-Aldrich, St. Louis, Mo., USA; A5441) antibody was diluted in 5% skim milk or bovine serum albumin with TBS-Tween 20, cultured overnight at 4° C., washed, and cultured with HRP-conjugated secondary antibody (1:1000, Abcam; ab131368, or ab131366). By using FUSION-SOLO imager (Vilber Lourmat, Marne La Vallee, France), a chemical fluorescence image was obtained.
On the technique in general: In western blotting, separated proteins are transferred to a membrane and probed.

For test [3], the system named is telomerase activity in HCC cell lines (Huh7 and Hep3B). Briefly: Telomerase activity, TRAP assay. On the procedure: (§1) To have quantitative determination of the telomerase activity, TRAP assay was carried out by using TRAPEZE® RT Telomerase Detection Kit (Millipore, Darmstadt, Germany; […]). According to the manual, the whole protein extract (100 ng) was used for each reaction.

The subject of test [4] is telomerase activity in THLE-3 cells. Briefly: Telomerase activity, TRAP assay. Particulars: 150 μmol/L H2O2-treated THLE-3 cells. The method, then: as §1

Consider `OO` [H2O2, hydrogen peroxide], for which the “telomere length increased by” value in test [1] (HCC cells treated with 300 μmol/L H2O2, compared to control HCC cells not exposed to H2O2) is reported as 25%-30%. In addition, the AKT phosphorylation level entry in test [2] (THLE-3 cells after H2O2 treatment) is “no change”.

With `CC[C@H](Nc1ncnc2nc[nH]c12)c1nc2cccc(F)c2c(=O)n1-c1ccccc1` [idelalisib, 5-fluoro-3-phenyl-2-[(1S)-1-(7H-purin-6-ylamino)propyl]-4(3H)-quinazolinone], the “telomere length reduced by” value in test [1] (300 μmol/L H2O2-treated HCC cells plus idelalisib, compared to HCC cells treated with H2O2 only) is 40-45%. Also, in test [1] (H2O2-treated cells), the “ROS-mediated increase in telomere length” value is “almost completely inhibited”. For the same compound, the telomere length result in test [1] (HCC cells, no H2O2) was “reduced”. In test [2] (THLE-3, idelalisib at a concentration of 25 μmol/L), the “basal level AKT phosphorylation” value is “not reduced”. For the same compound, the telomerase activity entry is “reduced” in test [3] (300 μmol/L H2O2-treated HCC cell lines) and “not” in test [4]. Further, in test [3] (H2O2-treated cells), the “ROS-mediated increase in telomerase activity” value is given as “almost completely inhibited”.
